Assay results: article PMC9583845, “Characterization of the chicken melanocortin 5 receptor and its potential role in regulating hepatic glucolipid metabolism” (Frontiers in Physiology, 2022)

How the values were obtained:
chicken MC3R = system: chicken MC3R; parameters: method as in Zhang et al., 2017; Thomas et al., 2018; settings: ref Zhang et al., 2017; Thomas et al., 2018; cited from earlier work
[1] = system: ELOVL6 mRNA, primary chicken hepatocytes; test: ELOVL6 mRNA in primary chicken hepatocytes, RT-qPCR; assay type: cell-based; settings: 6 h, N = 4, Figures 8A-C
Protocol: (§1) To evaluate the effect of ACTH1-39 on chicken liver, the chicken hepatocytes were prepared and maintained as a monolayer culture. Briefly, one-month-old male chicken hepatocytes were isolated by perfusion of a liver with Ca^2+-free KRB buffer to remove blood cells, and being digested with 0.25% collagenase-I for 10 min. Hepatocytes were obtained following filtering and washing using M199 medium. Then the hepatocytes were plated in a Corning CellBIND 48-well microplate (Corning, NY, cat. no.3338) with M199 medium containing 100 U/ml penicillin and […] streptomycin (Gibco), 5 μg/ml bovine insulin (Sigma), and 5% FBS at 37°C in a 5% CO2 atmosphere. To adhere to the wall, the cells were incubated on the 48-well plate for 4 h.
(§2) For quantitative real-time PCR, primary cultured chicken hepatocytes were treated with various concentrations of ACTH1-39 (or other composition) at 37°C for 6 h. The relative amount of mRNA was calculated using the comparative Ct method. Chicken β-actin gene was used as the reference gene. Amplification of specific transcripts was confirmed by analyzing the melting curve profile performed at the end of each run and by determining the size of the PCR products using agarose electrophoresis and ethidium bromide staining.

chicken MC5R = chicken MC5R (Gallus gallus, UniProt O73671); test: pGL3-CRE-luciferase reporter assay, CHO cells expressing chicken MC5R; assay type: cell-based; settings: for ability to activate / sensitivity of cMC5R (in words, ranking): CHO cells expressing cMC5R
Chain of chicken MC5R (O73671 1-325): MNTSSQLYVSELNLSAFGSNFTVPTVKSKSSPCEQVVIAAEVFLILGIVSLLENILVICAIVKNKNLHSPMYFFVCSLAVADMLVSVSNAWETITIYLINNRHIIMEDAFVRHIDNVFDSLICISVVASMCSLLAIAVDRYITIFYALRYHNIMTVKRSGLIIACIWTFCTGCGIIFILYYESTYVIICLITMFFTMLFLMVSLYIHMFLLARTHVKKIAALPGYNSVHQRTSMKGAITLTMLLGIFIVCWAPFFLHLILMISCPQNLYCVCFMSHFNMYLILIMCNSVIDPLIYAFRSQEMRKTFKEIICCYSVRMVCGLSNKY
Source text: All chemicals were purchased from Sigma-Aldrich (St. Louis, MO, United States) and the restriction enzymes were obtained from TaKaRa (Dalian, China). […] All primers used in this study were synthesized by Beijing Genome Institute (BGI, China) and listed in Supplementary Table 1.
(§3) The expression plasmids encoding MC5R, MRAP1 and MRAP2 were established by cloning their entire open reading frame (ORF) into the pcDNA3.1 (+) expression vector (Invitrogen).
(§4) The cells were then transfected with a mixture containing 700 ng pGL3-CRE-Luciferase reporter construct, 200 ng of receptor expression plasmid (or empty pcDNA3.1 vector as a negative control), 20 ng of pRL-TK construct (containing a Renilla luciferase gene, used as an internal control), and 2 μl jetPRIME transfection reagent (Polyplus Transfection, Illkirch, France) in 200 μL buffer. […] After removal of the medium from the 96-well plate, the cells were treated with 100 μl ligand-containing medium (or ligand-free medium) for 6 h. Finally, CHO cells were lysed with 1 × passive lysis buffer for luciferase assay (Promega) and the luciferase activity of the cell lysate was measured by a Multimode Microplate Reader (TriStar LB941, EG&G Berthold, Germany) according to the manufacturer’s instruction.
(§5) All statistical analysis was performed using GraphPad Prism 9 (Graph Pad Software Inc., San Diego, CA). The dose-response curves were constructed using nonlinear regression models. Student’s test was used to compare two groups, for more than two groups one-way ANOVA was performed followed by Dunnett’s test. To validate our results, all in-vitro experiments were repeated three times, and representative data are reported.

[2] = system: FASN mRNA, primary chicken hepatocytes; test: FASN mRNA in primary chicken hepatocytes, RT-qPCR; assay type: cell-based; settings: 0.1–100 nM, 6 h, N = 4, Figure 8H, listed as not decreased
Protocol: as §1, §2

[3] = system: CREB phosphorylation (cMC5R); test: CREB phosphorylation, western blot, CHO cells expressing cMC5R; assay type: cell-based, chicken; settings: 10 nM, 10 min; p-CREB normalized by total CREB; three independent experiments; Figure 2D
Protocol: To investigate whether the activation of cMC5R can enhance CREB phosphorylation, 100 ng of cMC5R expression plasmid, or an empty pcDNA3.1 (+) vector, was transfected into CHO cells cultured in a 24-well plate (Nunc) using jetPRIME transfection reagent (Polyplus Transfection). After 24 h transfection, ACTH (10 nM) or α-MSH (10 nM) was added to treat the cells for 10 min. Then the whole-cell lysates were used to examine the level of phosphorylated CREB using western blot. The level of total CREB protein was also examined and used as internal controls in each experiment. The phosphorylated CREB (p-CREB) and total CREB levels were quantified by densitometric analysis with ImageJ software. Relative optical densities of p-CREB normalized by CREB levels compared to the densities in the absence of ACTH (or α-MSH) are shown as relative p-CREB/CREB expression (fold changes).

chicken MC5R + MRAP1 = chicken MC5R + MRAP1 (Gallus gallus, UniProt O73671); test: pGL3-CRE-luciferase reporter assay, CHO cells co-expressing MC5R and cMRAP1; assay type: cell-based; settings: for effect of MRAP1 co-expression on sensitivity of MC5R: vs MC5R expressed alone
Chain of chicken MC5R + MRAP1 (O73671 1-325): as above
Protocol: as §3, §4, §5

## H-SYSMEHFRWGKPVGRKRRPIKVYPNGVDEESAESYPMEF-OH [ACTH1-39]
Chicken MC3R
  activation of chicken MC3R: activated by both α-MSH and ACTH
[1]
  ELOVL6 mRNA expression: dose-dependently decreased
Chicken MC5R
  ability to activate / sensitivity of cMC5R (in words, ranking): ACTH1-39 ≈ α-MSH > β-MSH > γ-MSH
Chicken MC5R; listed as ACTH
  ability to activate / sensitivity of cMC5R (in words, ranking): highest potency to activate cMC5R
Chicken MC5R; Table 1 / Figure 3, CHO cells, MC5R alone, 6 h, mean ± SEM of at least three independent experiments (figure: four replicates), read-out: EC50, MC5R expressed alone
  EC50: 5.91 ± 1.18 nM
[2]
  FASN mRNA expression: instead of ACACA, FASN and SCD
[3]
  CREB phosphorylation: significantly increased
Chicken MC5R + MRAP1; Table 1 / Figure 3, co-expressed with cMRAP1, 6 h, pGL3-CRE-luciferase, mean ± SEM of at least three independent experiments (figure: four replicates)
  EC50: 2.12 ± 0.37 nM
Chicken MC5R + MRAP1
  effect of MRAP1 co-expression on sensitivity of MC5R: did not affect the sensitivity of cMC5R to ACTH1-39
Chicken MC5R + MRAP1; listed as ACTH
  effect of MRAP1 co-expression on sensitivity of MC5R: no effect on the sensitivity of chicken MC5R for ACTH
